Entries after “also recorded” stand apart in the source; their conditions may differ. One block for each molecule: values may come before it. Peptide text beside a SMILES is read from it. * marks the point of attachment. Cbz = O=C(OCc1ccccc1)*
Assays:
[1] = test system: CASTOR1 protein level in 293T cells; assay: CASTOR1 protein level by immunoblotting after chemical treatment; type: cell-based, human; details: for Flag-CASTOR1 S14D protein level: 293T cells stably expressing Flag-CASTOR1 S14D; for Flag-CASTOR1 S14D protein level / Flag-CASTOR1 WT and S14A protein level: FIG. 10B-10D; for Flag-CASTOR1 WT and S14A protein level: 293T cells stably expressing Flag-CASTOR1 WT or S14A
Procedure: (§1) Cell culture and transfection: 293T cells obtained from ATCC (CRL-3216) were maintained in DMEM supplemented with 10% FBS. MCF7, T47D, HCC1569, and HCC202 cells were obtained from Dr. Xiaosong Wang at the University of Pittsburgh, and cultured in RPMI1640 with 10% FBS. MM cells were cultured in DMEM plus 10% FBS, while KMM cells were cultured in DMEM plus 10% FBS and 10 μg/ml hygromycin. HSAEC (FC-0016) and HLBEC (FC-0054) cells were purchased from Lifeline and cultured with the BronchiaLife™ Epithelial Airway Medium Complete Kit (Lifeline LL-0023). All cells were maintained at 37 C° in 5% CO2.
(§2) For amino acid deprivation and re-stimulation to assess mTORC1 activation, cells were incubated in EBSS medium (Thermo 24010043) for 50 min and then stimulated by adding arginine (Sigma A5131) at the indicated concentration. For ubiquitination assays, cells were deprived of FBS or arginine, or treated with 10 μM MK2206 (Selleckem S1078) overnight before immunoprecipitation and immunoblotting, or re-stimulated with FBS or arginine for 12 h before analysis.
For chemical treatments, CHX (CST 2112) or MG132 (Sigma M8699) dissolved in DMSO (VWR 97061-250) was diluted in medium to a specified concentration. Medium containing MG132 or CHX was then used to replace the original medium, and cells were cultured in the presence of MG132 for a specified time.
Immunoblotting analysis: To detect all proteins except CASTOR1, samples were separated with 4%-20% SDS-polyacrylamide gels (Genscript M00656 and M00657). To detect CASTOR1 protein, samples were resolved with 10% SDS-polyacrylamide gels (Genscript M00665 and M00666). Proteins resolved in gels were then transferred to nitrocellulose membranes (GE Healthcare 10600004), which were incubated with primary and secondary antibodies overnight and for 1 h at room temperature, respectively. The signals were developed using the Luminiata Crescendo Western HRP Substrate (EMD Millipore WBLUR0500) and SuperSignal West Femto Maximum Sensitivity Substrate (Thermo 34096) or fluorescence secondary antibodies. The images were recorded with a ChemiDoc MP Imaging System (Bio-Rad 17001402) at either Chemi, Dylight 500, DyLight 800, or StarBright B700 channels.

[2] = target: T1, recombinant GST-CASTOR1 protein (Novus Biologicals, H00652968-P01) (UniProt Q8WTX7)
T1 sequence: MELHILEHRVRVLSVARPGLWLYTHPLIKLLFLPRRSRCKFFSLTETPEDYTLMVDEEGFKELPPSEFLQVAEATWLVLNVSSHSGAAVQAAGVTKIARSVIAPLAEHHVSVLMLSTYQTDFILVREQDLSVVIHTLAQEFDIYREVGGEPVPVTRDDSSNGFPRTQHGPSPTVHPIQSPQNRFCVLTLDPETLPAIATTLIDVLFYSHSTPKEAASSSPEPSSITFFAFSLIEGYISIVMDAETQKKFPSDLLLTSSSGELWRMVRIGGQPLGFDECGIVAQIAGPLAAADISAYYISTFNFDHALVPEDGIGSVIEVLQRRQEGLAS

[3] = target: T2, AKT1 (Homo sapiens, UniProt P31749); assay: In vitro kinase assay, GST-AKT1 phosphorylation of GST-CASTOR1; type: biochemical; details: in the presence of ATP, FIG. 2D
T2 construct: purchased Novus Biologicals 1775-KS (GST-AKT1); H00652968-P01 (GST-CASTOR1)
Procedure: In vitro kinase assay: Recombinant GST-AKT1 protein (Novus Biologicals, 1775-KS) was mixed with GST-CASTOR1 protein (Novus Biologicals, H00652968-P01) in a 30 μl reaction mixture at room temperature for 1 h. The reaction mixture contained protease inhibitors, 100 mM HEPES (pH 7.4), 150 mM NaCl, 50 mM MgCl2,1 mM DTT, 0.01% NaN3, 1 mM ATP, 0.2 μg GST-AKT1 and 1 μg GST-CASTOR1.

[4] = test system: CASTOR1 phosphorylation at S14; assay: CASTOR1 phosphorylation at the AKT consensus motif (S14), immunoprecipitation and immunoblotting; type: cell-based, human; details: Flag-CASTOR1 in cells, FIG. 2C
Procedure: as §2
Immunoprecipitation. Cells were lysed in lysis buffer (50 mM Tris-HCl, with 150 mM NaCl, 1 mM EDTA, and 1% Triton X-100, pH 7.4) supplemented with a complete protease inhibitor cocktail (Thermo 78438) and phosphatase inhibitor (Thermo 78427), followed by centrifugation at 4° C. for 5 min. […]
(§3) Immunoblotting analysis: To detect all proteins except CASTOR1, samples were separated with 4%-20% SDS-polyacrylamide gels (Genscript M00656 and M00657). […] The signals were developed using the Luminiata Crescendo Western HRP Substrate (EMD Millipore WBLUR0500) and SuperSignal West Femto Maximum Sensitivity Substrate (Thermo 34096) or fluorescence secondary antibodies. The images were recorded with a ChemiDoc MP Imaging System (Bio-Rad 17001402) at either Chemi, Dylight 500, DyLight 800, or StarBright B700 channels.

[5] = test system: ER+ breast cancer cells; assay: Endogenous CASTOR1 protein level in ER+ breast cancer cells by immunoblotting; type: cell-based, human; details: FIG. 13D
Procedure: as §1
as §3, with “M00657). To detect CASTOR1 protein, samples were resolved with 10% SDS-polyacrylamide gels (Genscript M00665 and M00666).” for “M00657).”

[6] = test system: mTORC1; assay: mTORC1 activation status (pS6K, p4EBP1) by immunoblotting; type: cell-based, human; details: 293T cells, FIG. 1C
Procedure: as §1
For amino acid deprivation and re-stimulation to assess mTORC1 activation, cells were incubated in EBSS medium (Thermo 24010043) for 50 min and then stimulated by adding arginine (Sigma A5131) at the indicated concentration. […]
as §3

[7] = test system: CASTOR1 mRNA; assay: CASTOR1 mRNA level by RT-qPCR; type: cell-based, human; details: 293T cells, FIG. 6K
Source text: Reverse transcription real-time quantitative polymerase-chain reaction (RT-qPCR): Total RNA was extracted by using TRI Reagent (Sigma T9424) based on the manufacturer's instructions. Total RNA was subjected to reverse transcription using the Maxima H Minus First Strand cDNA Synthesis Kit (Thermo K1652). SsoAdvanced™ Universal SYBR® Green Supermix Kit (Bio-Rad 172-5272) was applied for qPCR analysis. The relative mRNA levels were normalized to a house-keeping gene, which yielded 2^−ΔΔCt values. For qPCR reaction, each sample was run in triplicates with cycle threshold (Ct) values within 0.5 Ct differences among the triplicates. The primers used for gene expression were 5′[…]3′ (forward; SEQ ID NO: 22) and 5′[…]3′ (reverse; SEQ ID NO: 23) for human CASTOR1; and […] (forward; SEQ ID NO: 24) and […] (reverse; SEQ ID NO: 25) for human β-actin.

[8] = target: human CASTOR1 wild type (Flag-CASTOR1 WT) (UniProt Q8WTX7)
[9] = target: the molecule itself; assay: dimerization assay, method not described (FIG. 33)

T2 sequence (P31749 whole entry): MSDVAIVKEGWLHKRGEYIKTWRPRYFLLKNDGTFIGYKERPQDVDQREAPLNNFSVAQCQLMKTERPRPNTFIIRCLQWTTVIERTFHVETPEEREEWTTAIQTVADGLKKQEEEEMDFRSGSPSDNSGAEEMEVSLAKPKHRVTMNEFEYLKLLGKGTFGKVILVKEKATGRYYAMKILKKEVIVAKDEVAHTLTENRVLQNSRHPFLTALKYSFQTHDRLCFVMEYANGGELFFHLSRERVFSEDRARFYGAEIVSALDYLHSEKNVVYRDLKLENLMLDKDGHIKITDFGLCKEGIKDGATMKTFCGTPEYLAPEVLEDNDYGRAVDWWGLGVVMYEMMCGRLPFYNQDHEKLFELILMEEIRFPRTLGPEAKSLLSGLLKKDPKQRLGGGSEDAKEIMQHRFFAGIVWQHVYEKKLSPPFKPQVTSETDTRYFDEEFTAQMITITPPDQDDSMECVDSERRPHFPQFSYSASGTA

Molecule: CC(C)C[C@@H](C=O)NC(=O)[C@H](CC(C)C)NC(=O)[C@H](CC(C)C)NC(=O)OCc1ccccc1 [MG132] (Cbz-Leu-Leu-Leu-aldehyde)
accumulation of CASTOR1 protein ([1]; 293T cells co-transfected with Flag-CASTOR1 and myr-HA-AKT1, FIG. 9H): increased the accumulation of CASTOR1 protein | Flag-CASTOR1 S14D protein level [1]: increased S14D protein level | Flag-CASTOR1 WT and S14A protein level [1]: minimal effects on WT and S14A | RNF167-mediated downregulation of CASTOR1 protein ([1]; RNF167 overexpression, FIG. 7H): partially rescues | accumulation of CASTOR1 protein ([1]; cells expressing Flag-CASTOR1 and the vector control, FIG. 9H): only had a marginal effect

Molecule: recombinant GST-AKT1 protein (Novus Biologicals, 1775-KS)
in vitro kinase assay: phosphorylation of GST-CASTOR1 [2]: efficiently phosphorylated purified GST-tagged CASTOR1 (GST-CASTOR1) recombinant protein only in the presence of ATP, which was abolished by AKT inhibitor MK2206

phosphorylation of purified GST-CASTOR1 by purified GST-AKT1 [3]: abolished
Molecule: NC1(c2ccc(-c3nc4ccn5c(=O)[nH]nc5c4cc3-c3ccccc3)cc2)CCC1 [MK2206]
CASTOR1 protein level ([1]; 293T cells, FIG. 1C): upregulated CASTOR1 protein | specific phosphorylation of the AKT motif of CASTOR1 (S14) [4]: significantly reduced the specific phosphorylation of the AKT motif | endogenous CASTOR1 protein level [5]: enhanced; also recorded: increases the endogenous CASTOR1 protein level | mTORC1 activation [6]: decreased mTORC1 activation | CASTOR1 mRNA level [7]: but not mRNA level

Molecule: C[C@@H]1C[C@@H]([C@H](O)CC2CC(=O)NC(=O)C2)C(=O)[C@@H](C)C1 [CHX, cycloheximide]
Flag-CASTOR1 S14D protein level [1]: reduced | Flag-CASTOR1 WT and S14A protein level [1]: minimal effects on WT and S14A

Molecule: RING finger protein 167 (RNF167)
CASTOR1 ubiquitination [8]: only RNF167 increased CASTOR1 ubiquitination

B1: human CASTOR1 wild type (Flag-CASTOR1 WT) (other, UniProt Q8WTX7 1-329, looked up)
chain: MELHILEHRVRVLSVARPGLWLYTHPLIKLLFLPRRSRCKFFSLTETPEDYTLMVDEEGFKELPPSEFLQVAEATWLVLNVSSHSGAAVQAAGVTKIARSVIAPLAEHHVSVLMLSTYQTDFILVREQDLSVVIHTLAQEFDIYREVGGEPVPVTRDDSSNGFPRTQHGPSPTVHPIQSPQNRFCVLTLDPETLPAIATTLIDVLFYSHSTPKEAASSSPEPSSITFFAFSLIEGYISIVMDAETQKKFPSDLLLTSSSGELWRMVRIGGQPLGFDECGIVAQIAGPLAAADISAYYISTFNFDHALVPEDGIGSVIEVLQRRQEGLAS
notes: Expressed in cells and pulled down from lysates; also called HA-CASTOR1; cytosolic arginine sensor for mTORC1 subunit 1; not shown: N-terminal Flag tag
binding result [9]: binds

— patent publication US20230357430A1, “RNF167 AND CASTOR1 AS NOVEL MTOR TARGETS” (UNIVERSITY OF PITTSBURGH - OF THE COMMONWEALTH SYSTEM OF …, priority 2020, published 2023)
